Data taken from ChEMBL document CHEMBL5154798, “Structure-based discovery of receptor tyrosine kinase AXL degraders with excellent anti-tumor activity by selectively degrading AXL and inducing methuosis” (Eur J Med Chem, 2022).
Each block holds one molecule with its values, some of them ahead of it. Activity calls are given as the source filed them. The rule behind the calls is not given here.

Experiments:
[1] = Cytotoxicity against human MCF-10A cells after 72 hrs by MTT assay; type: toxicity, cell-based
[2] = Cytotoxicity against human GES1 cells after 72 hrs by MTT assay; type: toxicity, cell-based
4T1 [3] = test: Antiproliferative activity against mouse 4T1 cells highly expressing AXL after 72 hrs by MTT assay; details: 4T1, 72 h
MDA-MB-231 [4] = test: Antiproliferative activity against human MDA-MB-231 cells highly expressing AXL after 72 hrs by MTT assay; details: MDA-MB-231, 72 h
[5] = target: T1, Tyrosine-protein kinase receptor UFO (Homo sapiens, UniProt P30530); test: Inhibition of AXL (unknown origin) measured by FRET assay
T1 sequence (P30530 whole entry): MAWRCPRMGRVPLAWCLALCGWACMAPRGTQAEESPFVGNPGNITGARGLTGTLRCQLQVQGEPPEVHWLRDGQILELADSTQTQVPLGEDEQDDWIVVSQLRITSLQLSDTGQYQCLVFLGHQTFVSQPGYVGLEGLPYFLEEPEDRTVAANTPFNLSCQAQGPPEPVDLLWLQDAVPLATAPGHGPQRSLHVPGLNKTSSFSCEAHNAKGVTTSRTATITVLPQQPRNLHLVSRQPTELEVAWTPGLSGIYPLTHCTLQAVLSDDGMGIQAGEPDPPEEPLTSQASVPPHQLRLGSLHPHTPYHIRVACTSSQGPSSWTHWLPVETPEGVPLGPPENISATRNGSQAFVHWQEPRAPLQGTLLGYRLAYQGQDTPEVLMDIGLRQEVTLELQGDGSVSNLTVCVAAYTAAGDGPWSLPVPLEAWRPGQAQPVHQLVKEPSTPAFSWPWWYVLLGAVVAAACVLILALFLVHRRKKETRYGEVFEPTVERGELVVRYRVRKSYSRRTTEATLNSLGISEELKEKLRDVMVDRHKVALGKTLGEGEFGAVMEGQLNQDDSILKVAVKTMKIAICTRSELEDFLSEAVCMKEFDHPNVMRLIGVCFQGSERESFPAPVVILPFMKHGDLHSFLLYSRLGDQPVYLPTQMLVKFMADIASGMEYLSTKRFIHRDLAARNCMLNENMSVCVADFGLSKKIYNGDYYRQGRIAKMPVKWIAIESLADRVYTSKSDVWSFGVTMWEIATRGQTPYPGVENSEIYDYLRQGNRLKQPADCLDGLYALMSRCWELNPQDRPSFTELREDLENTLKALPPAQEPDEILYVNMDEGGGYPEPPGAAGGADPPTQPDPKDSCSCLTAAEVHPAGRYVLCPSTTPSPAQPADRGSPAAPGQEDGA

[6] = Cmax in male Sprague-Dawley rat at 2 mg/kg, iv administered as single dose measured by LC/MS/MS analysis; type: ADME, organism-based; set-up: dose 2 mg/kg, route iv; details: in vivo
[7] = Half-life in male Sprague-Dawley rat at 2 mg/kg, iv administered as single dose measured by LC/MS/MS analysis; type: ADME, organism-based; details: in vivo
MDA-MB-231 [8] = test: Induction of macropinocytosis in human MDA-MB-231 cells measured by MitoTracker staining based fluorescence microscopy; type: functional, cell-based
4T1 [9] = test: Induction of cytoplasmic vacuolation in mouse 4T1 cells at 0.5 uM; type: functional, cell-based
MDA-MB-231 [10] = test: Induction of cytoplasmic vacuolation in human MDA-MB-231 cells at 1 uM in presence of 1 uM pan-caspase inhibitor Z-VAD-FMK; type: functional, cell-based
[11] = Systemic toxicity in female BALB/c nude mouse xenografted with human MDA-MB-231 cells assessed as inflammatory cell infiltration in kidney at 25 mg/kg, ip; type: organism-based; details: in vivo
Mus musculus = test: In vivo induction of CRBN-mediated AXL degradation in mouse measured after 6 hrs; type: functional, organism-based
MDA-MB-231 [12] = test: Induction of macropinocytosis in human MDA-MB-231 cells measured by LysoTracker staining based fluorescence microscopy; type: functional, cell-based
[13] = Systemic toxicity in female BALB/c nude mouse xenografted with human MDA-MB-231 cells assessed as necrosis of spleen tissue at 25 mg/kg, ip; type: organism-based; details: in vivo
[14] = Systemic toxicity in female BALB/c nude mouse xenografted with human MDA-MB-231 cells assessed as inflammatory cell infiltration in liver at 25 mg/kg, ip; type: organism-based; details: in vivo
[15] = AUC (0 to t) in male Sprague-Dawley rat at 20 mg/kg, po administered as single dose measured by LC/MS/MS analysis; type: ADME, organism-based; set-up: dose 20 mg/kg, route po; details: in vivo
[16] = Systemic toxicity in female BALB/c nude mouse xenografted with human MDA-MB-231 cells assessed as necrosis of kidney tissue at 25 mg/kg, ip; type: organism-based; details: in vivo
[17] = Systemic toxicity in female BALB/c nude mouse xenografted with human MDA-MB-231 cells assessed as necrosis of liver tissue at 25 mg/kg, ip; type: organism-based; details: in vivo
[18] = Systemic toxicity in female BALB/c nude mouse xenografted with human MDA-MB-231 cells assessed as necrosis of lung tissue at 25 mg/kg, ip; type: organism-based; details: in vivo
[19] = Toxicity in female BALB/c nude mouse xenografted with human MDA-MB-231 cells assessed as change in body wieght at 25 mg/kg, ip; type: organism-based; details: in vivo
[20] = Half-life in male Sprague-Dawley rat at 20 mg/kg, po administered as single dose measured by LC/MS/MS analysis; type: ADME, organism-based; details: in vivo
[21] = Systemic toxicity in female BALB/c nude mouse xenografted with human MDA-MB-231 cells assessed as inflammatory cell infiltration in lung at 25 mg/kg, ip; type: organism-based; details: in vivo
MDA-MB-231 [22] = test: Antitumor activity against human MDA-MB-231 cells xenografted in female BALB/c nude mouse assessed as tumor growth inhibition at 25 mg/kg, ip; type: functional, organism-based
[23] = Systemic toxicity in female BALB/c nude mouse xenografted with human MDA-MB-231 cells assessed as inflammatory cell infiltration in spleen at 25 mg/kg, ip; type: organism-based; details: in vivo
MDA-MB-231 [24] = test: Induction of macropinocytosis in human MDA-MB-231 cells assessed as co-localization of Rab7 with lucifer yellow measured by immunofluorescence assay; type: functional, cell-based
[25] = AUC (0 to t) in male Sprague-Dawley rat at 2 mg/kg, iv administered as single dose measured by LC/MS/MS analysis; type: ADME, organism-based; set-up: dose 2 mg/kg, route iv; details: in vivo
[26] = Clearance in male Sprague-Dawley rat at 2 mg/kg, iv administered as single dose measured by LC/MS/MS analysis; type: ADME, organism-based; details: in vivo, iv, 2 mg/kg
MDA-MB-231 [27] = test: Induction of macropinocytosis in human MDA-MB-231 cells assessed as co-localization of LAMP-1 with lucifer yellow measured by immunofluorescence assay; type: functional, cell-based
[28] = Cmax in male Sprague-Dawley rat at 20 mg/kg, po administered as single dose measured by LC/MS/MS analysis; type: ADME, organism-based; set-up: dose 20 mg/kg, route po; details: in vivo
[29] = Tmax in male Sprague-Dawley rat at 20 mg/kg, po administered as single dose measured by LC/MS/MS analysis; type: ADME, organism-based; details: in vivo
[30] = Systemic toxicity in female BALB/c nude mouse xenografted with human MDA-MB-231 cells assessed as inflammatory cell infiltration in heart at 25 mg/kg, ip; type: organism-based; details: in vivo
MDA-MB-231 [31] = test: Induction of cytoplasmic vacuolation in human MDA-MB-231 cells at 0.5 uM; type: functional, cell-based
[32] = Systemic toxicity in female BALB/c nude mouse xenografted with human MDA-MB-231 cells assessed as necrosis of heart tissue at 25 mg/kg, ip; type: organism-based; details: in vivo
[33] = Tmax in male Sprague-Dawley rat at 2 mg/kg, iv administered as single dose measured by LC/MS/MS analysis; type: ADME, organism-based; details: in vivo
[34] = Oral bioavailability in male Sprague-Dawley rat at 20 mg/kg administered as single dose measured by LC/MS/MS analysis; type: ADME, organism-based; details: in vivo

SMILES: Nc1nc(NCCNC(=O)CCCCCCNc2cccc3c2CN(C2CCC(=O)NC2=O)C3=O)nn1-c1cc2c(nn1)-c1ccccc1CCC2 (centres undefined)
IC50 at 72 h [1]: > 60 µM
IC50 at 72 h [2]: > 60 µM

SMILES: Nc1nc(NCCNC(=O)CCCCCCNc2cccc3c2CN(C2CCC(=O)NC2=O)C3=O)nn1-c1ccc(-c2ccccc2)nn1 (centres undefined)
IC50 (4T1 [3]): > 60 µM
IC50 at 72 h [1]: > 60 µM
IC50 at 72 h [2]: > 60 µM
IC50 (MDA-MB-231 [4]): > 60 µM
IC50 [5]: > 60 µM

SMILES: Nc1nc(NCCNC(=O)CCCNc2cccc3c2CN(C2CCC(=O)NC2=O)C3=O)nn1-c1cc2c(nn1)-c1ccccc1CCC2 (centres undefined)
IC50 at 72 h [1]: > 60 µM
IC50 at 72 h [2]: > 60 µM
IC50 (MDA-MB-231 [4]): > 60 µM
IC50 [5]: > 60 µM

SMILES: Nc1nc(NCCNC(=O)CCCCCNc2cccc3c2CN(C2CCC(=O)NC2=O)C3=O)nn1-c1ccc(-c2ccccc2)nn1 (centres undefined)
IC50 (4T1 [3]): 27.9 µM
IC50 at 72 h [1]: > 60 µM
IC50 at 72 h [2]: > 60 µM
IC50 (MDA-MB-231 [4]): 31.7 µM

SMILES: Nc1nc(NCCNC(=O)CCCCNc2cccc3c2CN(C2CCC(=O)NC2=O)C3=O)nn1-c1ccc(-c2ccccc2)nn1 (centres undefined)
IC50 (4T1 [3]): > 60 µM
IC50 at 72 h [1]: > 60 µM
IC50 at 72 h [2]: > 60 µM
IC50 (MDA-MB-231 [4]): 52.2 µM

SMILES: Nc1nc(Nc2ccc(CNC(=O)CCCCCCCNc3cccc4c3CN(C3CCC(=O)NC3=O)C4=O)cc2)nn1-c1cc2c(nn1)-c1ccccc1CCC2 (centres undefined)
IC50 (4T1 [3]): 21.1 µM
IC50 at 72 h [1]: > 60 µM
IC50 at 72 h [2]: > 60 µM
IC50 (MDA-MB-231 [4]): 27.6 µM

SMILES: Nc1nc(Nc2ccc(CNC(=O)CCCNc3cccc4c3CN(C3CCC(=O)NC3=O)C4=O)cc2)nn1-c1cc2c(nn1)-c1ccccc1CCC2 (centres undefined)
IC50 (4T1 [3]): 34.6 µM
IC50 at 72 h [1]: > 60 µM
IC50 at 72 h [2]: > 60 µM
IC50 (MDA-MB-231 [4]): 41.3 µM

Second part, led by results:

IC50 (4T1 [3]): > 60 µM
IC50 (MDA-MB-231 [4]): 48 µM
SMILES: Nc1nc(Nc2ccc(CNC(=O)CCCNc3cccc4c3CN(C3CCC(=O)NC3=O)C4=O)cc2)nn1-c1ccc(-c2ccccc2)nn1 (centres undefined)
IC50 at 72 h [1]: > 60 µM
IC50 at 72 h [2]: > 60 µM

Cmax [6]: 279 ng/mL
t1/2 [7]: 1.18 h
IC50 (4T1 [3]): 2.06 µM
AUC(0-t) [15]: 3590 ng·h/mL
half-life [20]: 4.43 h
IC50 (MDA-MB-231 [4]): 6.23 µM
AUCt [25]: 7581.3 ng·h/mL
CL [26]: 12 mL/min/kg
Cmax [28]: 144 ng/mL
Tmax [29]: 2.25 h
Tmax [33]: 0.82 h
bioavailability [34]: 7.8%
SMILES: Nc1nc(Nc2ccc(CNC(=O)CCCCCNc3cccc4c3CN(C3CCC(=O)NC3=O)C4=O)cc2)nn1-c1ccc(-c2ccccc2)nn1 (centres undefined)
Activity (MDA-MB-231 [8]): Active
Activity (4T1 [9]): Active
Activity (MDA-MB-231 [10]): Active
Activity [11]: Non-Toxic
Activity (Mus musculus): Active
Activity (MDA-MB-231 [12]): Active
Activity [13]: Non-Toxic
Activity [14]: Non-Toxic
Activity [16]: Non-Toxic
IC50 at 72 h [1]: > 60 µM
Activity [17]: Non-Toxic
Activity [18]: Non-Toxic
Activity [19]: Non-Toxic
IC50 at 72 h [2]: > 60 µM
Activity [21]: Non-Toxic
TGI (MDA-MB-231 [22]): Active
Activity [23]: Non-Toxic
Activity (MDA-MB-231 [24]): Active
Activity (MDA-MB-231 [27]): Active
Activity [30]: Non-Toxic
Activity (MDA-MB-231 [31]): Active
Activity [32]: Non-Toxic

IC50 (4T1 [3]): 24.6 µM
IC50 (MDA-MB-231 [4]): 28.5 µM
SMILES: Nc1nc(Nc2ccc(CNC(=O)CCCCCCNc3cccc4c3CN(C3CCC(=O)NC3=O)C4=O)cc2)nn1-c1ccc(-c2ccccc2)nn1 (centres undefined)
IC50 at 72 h [1]: > 60 µM
IC50 at 72 h [2]: > 60 µM
